Like-named read-outs stand apart in the source and are kept apart here.
Experiments:
Mcl-1 protein = Mcl-1 protein (UniProtKB primary accession number: Q07820) (Homo sapiens, UniProt Q07820); experiment: Inhibition of Mcl-1 by fluorescence polarisation, Method 1; format: binding; settings: read-out: IC50 (M) Mcl-1 FP
Summary of the method: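 FP readout of relative binding potency. Mcl-1 5 nM final, fluorescein-labelled ligand 1 nM final; buffer 10 mM HEPES, 150 mM NaCl, 0.05% Tween 20, pH 7.4; 11-pt dilution series, 5% DMSO final.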

[1] = test system: H929 multiple myeloma tumour line; experiment: In vitro cytotoxicity, Microculture Tetrazolium Assay; format: cell-based; settings: H929 cells, 48 hours exposure, read-out: IC50 (μM) MTT H929
Method: The cytotoxicity studies were carried out on the H929 multiple myeloma tumour line.
The cells are distributed onto microplates and exposed to the test compounds for 48 hours.

[2] = test system: AMO-1 multiple myeloma cells; experiment: Quantification of the cleaved form of PARP in vivo (MSD ELISA, tumour lysates); parameters: species or system mice (SCID strain); settings: activation factor: cleaved PARP in treated mice / control mice, AMO-1 xenograft in SCID mice, intraveinous or oral routes
Summary of the method: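 SCID mice bearing subcutaneous AMO-1 xenografts (1.10^7 cells) dosed intravenously or orally 12 to 14 days after grafting. Cleaved PARP in tumour lysates measured by MSD ELISA. Reported as activation factor, the ratio of treated to control cleaved PARP.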

[3] = fluorescence polarisation, Method 1, or Method 2
[4] = Homo sapiens, NCI-H929, 48 h, MTT
[5] = fluorescence polarisation test, Method 2 values are underlined in the patent (underlining not visible here)
[6] = fluorescence polarisation test, Method 1, or Method 2 where the value is underlined (underlining not visible)
[7] = Homo sapiens, NCI-H929, 48 h, cell viability

Sequence of Mcl-1 protein (Q07820 whole entry): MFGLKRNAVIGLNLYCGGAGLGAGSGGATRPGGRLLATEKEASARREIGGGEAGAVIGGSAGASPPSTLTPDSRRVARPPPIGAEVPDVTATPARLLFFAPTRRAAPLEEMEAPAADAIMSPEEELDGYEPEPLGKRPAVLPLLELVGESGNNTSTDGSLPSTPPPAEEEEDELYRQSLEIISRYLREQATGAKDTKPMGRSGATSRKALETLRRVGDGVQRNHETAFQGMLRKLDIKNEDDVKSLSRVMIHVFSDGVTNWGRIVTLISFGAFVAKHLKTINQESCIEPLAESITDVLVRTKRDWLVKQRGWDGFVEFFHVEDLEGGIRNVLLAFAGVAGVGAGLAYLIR

SMILES | IC50 (Mcl-1 protein; [3]) [M] | IC50 [1, 4] [µM] | PARP fold [2] [fold] | IC50 (Mcl-1 protein; [5]) [M] | IC50 (Mcl-1 protein; [6]) [M] | IC50 [1, 7] [µM] | IC50 ([1]; MTT) [µM]
COc1ccccc1-c1nccc(COc2ccccc2CC(Oc2ncnc3sc(-c4ccc(OCc5ccncc5)cc4)c(-c4ccc(OCCN5CCN(C)CC5)c(Cl)c4C)c23)C(=O)O)n1 [Example 774, (2R)-2-[((5Sa)-5-{3-chloro-2-methyl-4-[2-(4-methylpiperazin-1-yl)ethoxy]phenyl}-6-[4-(pyridin-4-ylmethoxy)phenyl]thieno[2,3-d]pyrimidin-4-yl)oxy]-3-(2-{[2-(2-methoxyphenyl)pyrimidin-4-yl]methoxy}phenyl)propanoic acid] | 9.48e-10 | 0.009 | 104.8 |  |  |  | 
Cc1c(-c2c(-c3ccco3)sc3ncnc(OC(Cc4ccccc4OCc4ccnc(OCC5CC5)n4)C(=O)O)c23)ccc(OCCN2CCN(C)CC2)c1Cl [Example 256, (2R)-2-{[(5Sa)-5-{3-chloro-2-methyl-4-[2-(4-methylpiperazin-1-yl)ethoxy]phenyl}-6-(furan-2-yl)thieno[2,3-d]pyrimidin-4-yl]oxy}-3-(2-{[2-(cyclopropylmethoxy)pyrimidin-4-yl]methoxy}phenyl)propanoic acid] |  | 0.006 | 125.1 | 4.8e-09 |  |  | 
COCCOc1nccc(COc2ccccc2CC(Oc2ncnc3sc(-c4ccc(F)cc4)c(-c4ccc(OCCN5CCN(C)CC5)c(Cl)c4C)c23)C(=O)O)n1 [Example 63, (2R)-2-{[(5Sa)-5-{3-chloro-2-methyl-4-[2-(4-methylpiperazin-1-yl)ethoxy]phenyl}-6-(4-fluorophenyl)thieno[2,3-d]pyrimidin-4-yl]oxy}-3-(2-{[2-(2-methoxyethoxy)pyrimidin-4-yl]methoxy}phenyl)propanoic acid] |  | 0.009 | 177.8 | 4.5e-09 |  |  | 
Cc1c(-c2c(-c3ccc(F)cc3)sc3ncnc(OC(Cc4ccccc4OCc4ccnc(-c5ccccc5O)n4)C(=O)O)c23)ccc(OCCN2CCN(C)CC2)c1Cl [Example 722, (2R)-2-{[(5Sa)-5-{3-chloro-2-methyl-4-[2-(4-methylpiperazin-1-yl)ethoxy]phenyl}-6-(4-fluorophenyl)thieno[2,3-d]pyrimidin-4-yl]oxy}-3-(2-{[2-(2-hydroxyphenyl)pyrimidin-4-yl]methoxy}phenyl)propanoic acid] | 1.4e-09 | 0.023 | 296.6 |  |  |  | 
COc1ccccc1-c1nccc(COc2ccccc2CC(Oc2ncnc3sc(-c4ccc(F)cc4)c(-c4ccc(OCCN5CCN(C)CC5)c(Cl)c4C)c23)C(=O)OCC(=O)N(C)C)n1 [Example 812, 2-(dimethylamino)-2-oxoethyl (2R)-2-{[(5Sa)-5-{3-chloro-2-methyl-4-[2-(4-methylpiperazin-1-yl)ethoxy]phenyl}-6-(4-fluorophenyl)thieno[2,3-d]pyrimidin-4-yl]oxy}-3-(2-{[2-(2-methoxyphenyl)pyrimidin-4-yl]methoxy}phenyl)propanoate] |  |  | 136 |  | 6.51e-07 | 0.103 | 
COc1ccccc1-c1nccc(COc2ccccc2CC(Oc2ncnc3sc(C#CCCc4ccccc4)c(-c4ccc(OCCN5CCN(C)CC5)c(Cl)c4C)c23)C(=O)O)n1 [Example 781, (2R)-2-{[(5Sa)-5-{3-chloro-2-methyl-4-[2-(4-methylpiperazin-1-yl)ethoxy]phenyl}-6-(4-phenylbut-1-yn-1-yl)thieno[2,3-d]pyrimidin-4-yl]oxy}-3-(2-{[2-(2-methoxyphenyl)pyrimidin-4-yl]methoxy}phenyl)propanoic acid] | 9.48e-10 | 0.033 | 113.3 |  |  |  | 
CC#Cc1sc2ncnc(O[C@H](Cc3ccccc3OCc3ccnc(-c4ccncc4C)n3)C(=O)O)c2c1-c1ccc(OCCN2CCN(C)CC2)c(Cl)c1C [Example 483, (2R)-2-{[(5Sa)-5-{3-chloro-2-methyl-4-[2-(4-methylpiperazin-1-yl)ethoxy]phenyl}-6-(prop-1-yn-1-yl)thieno[2,3-d]pyrimidin-4-yl]oxy}-3-(2-{[2-(3-methylpyridin-4-yl)pyrimidin-4-yl]methoxy}phenyl)propanoic acid] | 5.2e-09 |  | 411 |  |  |  | 0.003
CC#Cc1sc2ncnc(OC(Cc3ccccc3OCc3ccnc(OCC(F)(F)F)n3)C(=O)O)c2c1-c1ccc(OCCN2CCN(C)CC2)c(Cl)c1C [Example 487, (2R)-2-{[(5Sa)-5-{3-chloro-2-methyl-4-[2-(4-methylpiperazin-1-yl)ethoxy]phenyl}-6-(prop-1-yn-1-yl)thieno[2,3-d]pyrimidin-4-yl]oxy}-3-(2-{[2-(2,2,2-trifluoroethoxy)pyrimidin-4-yl]methoxy}phenyl)propanoic acid] | 6.5e-09 | 0.004 | 141.4 |  |  |  | 
CCc1ccccc1-c1nccc(COc2ccccc2C[C@@H](Oc2ncnc3sc(-c4ccc(F)cc4)c(-c4ccc(OCCN5CCN(C)CC5)c(Cl)c4C)c23)C(=O)O)n1 [Example 726, (2R)-2-{[(5Sa)-5-{3-chloro-2-methyl-4-[2-(4-methylpiperazin-1-yl)ethoxy]phenyl}-6-(4-fluorophenyl)thieno[2,3-d]pyrimidin-4-yl]oxy}-3-(2-{[2-(2-ethylphenyl)pyrimidin-4-yl]methoxy}phenyl)propanoic acid] | 1.18e-09 |  | 112.5 |  |  |  | 0.011
COCCOCCOC(=O)C(Cc1ccccc1OCc1ccnc(-c2ccccc2OC)n1)Oc1ncnc2sc(-c3ccc(F)cc3)c(-c3ccc(OCCN4CCN(C)CC4)c(Cl)c3C)c12 [Example 814, 2-(2-methoxyethoxy)ethyl (2R)-2-{[(5Sa)-5-{3-chloro-2-methyl-4-[2-(4-methylpiperazin-1-yl)ethoxy]phenyl}-6-(4-fluorophenyl)thieno[2,3-d]pyrimidin-4-yl]oxy}-3-(2-{[2-(2-methoxyphenyl)pyrimidin-4-yl]methoxy}phenyl)propanoate] |  |  | 118.5 |  | 6.39e-07 | 0.314 | 
Cc1c(-c2c(-c3ccc(F)cc3)sc3ncnc(OC(Cc4ccccc4OCc4ccnc(-c5ccccc5F)n4)C(=O)O)c23)ccc(OCCN2CCN(C)CC2)c1Cl [Example 114, (2R)-2-{[(5Sa)-5-{3-chloro-2-methyl-4-[2-(4-methylpiperazin-1-yl)ethoxy]phenyl}-6-(4-fluorophenyl)thieno[2,3-d]pyrimidin-4-yl]oxy}-3-(2-{[2-(2-fluorophenyl)pyrimidin-4-yl]methoxy}phenyl)propanoic acid] |  | 0.005 | 158.2 | 2.1e-09 |  |  | 

Source: patent publication US9670227B2, “Thienopyrimidine derivatives, a process for their preparation and pharmaceutical compositions containing them” (LES LABORATOIRES SERVIER, priority 2013, dated 2017)
